Biological target: T1, Vasopressin V2 (Rattus norvegicus, UniProt Q00788)
T1 construct: Male or female normotensive Sprague-Dawley rats; from tissue; host or cells: whole living Sprague-Dawley rat (V2 receptors of the kidney collecting ducts)
Assay: Vasopressin V2 agonist effects of test compounds in normal conscious water-loaded rats
Assay type: in vivo
Conditions: oral dose of 10 mg/Kg, urine collected for four hours, Sprague-Dawley (CD) rats; for Changes in Urinary Osmolality: osmolality changes expressed as percent of control; for Urine Volume (% decrease): percent decrease in urine volume vs. control
Text: Vasopressin V2 Agonist Effects of Test Compounds in Normal Conscious Water-Loaded Rats:
Male or female normotensive Sprague-Dawley rats (Charles River Laboratories, Inc., Kingston, N.Y.) of 350-500 g body weight were supplied with standard rodent diet (Purina Rodent Lab. Chow 5001) and water ad libitum. On the day of test, rats were placed individually into metabolic cages equipped with devices to separate the feces from the urine and containers for collection of urine. A test compound or a reference agent was given at an oral dose of 10 mg/Kg in a volume of 10 mL/Kg. The vehicle used was 20% dimethylsulfoxide (DMSO) in 2.5% preboiled corn starch. Thirty minutes after dosing the test compound, rats were gavaged with water at 30 mL/Kg into the stomach using a feeding needle. During the test, rats were not provided with water or food. Urine was collected for four hours after dosing of the test compound. At the end of four hours, urine volume was measured. Urinary osmolality was determined using a Fiske One-Ten Osmometer (Fiske Associates, Norwood, Mass., 02062) or an Advanced CRYOMATIC Osmometer, Model 3C2 (Advanced Instruments, Norwood, Mass.). Determinations of Na^+, K^+ and Cl^− ion were carried out using ion specific electrodes in a Beckman SYNCHRON EL-ISE Electrolyte System analyzer. The urinary osmolality should increase proportionally. In the screening test, two rats were used for each compound. If the difference in the urine volume of the two rats was greater than 50%, a third rat was used.

T1 sequence (Q00788 whole entry): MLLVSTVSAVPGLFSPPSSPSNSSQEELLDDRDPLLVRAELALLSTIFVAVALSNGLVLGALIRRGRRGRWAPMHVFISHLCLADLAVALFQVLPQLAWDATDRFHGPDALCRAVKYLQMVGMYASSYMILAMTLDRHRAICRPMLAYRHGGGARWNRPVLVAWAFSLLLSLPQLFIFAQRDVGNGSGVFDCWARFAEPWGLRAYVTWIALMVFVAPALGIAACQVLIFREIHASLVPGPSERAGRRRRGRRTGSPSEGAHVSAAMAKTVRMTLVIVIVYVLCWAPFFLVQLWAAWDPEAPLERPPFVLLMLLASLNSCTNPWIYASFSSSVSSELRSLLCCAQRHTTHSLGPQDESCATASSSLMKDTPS

| Compound | Changes in Urinary Osmolality | Urine Volume (% decrease) |
| --- | --- | --- |
| O=C(c1ccc2ncsc2c1)N1Cc2cccn2Cc2ccccc21 [Example 4, (Benzothiazol-6-yl)-(5H-10,11-dihydro-pyrrolo[2,1-c][1,4]benzodiazepin-10-yl)-methanone] | 3% of control | 19 |
| O=C(c1ccc2c(c1)CCO2)N1Cc2cccn2Cc2ccccc21 [Example 3, (2,3-Dihvdro-benzofuran-5-yl)-(5H-10.11-dihydro-pyrrolo [2,1-c][1,4]benzodiazepin-10-yl)-methanone] | 10% of control | 32 |
| O=C(c1ccc2c(c1)OCO2)N1Cc2cccn2Cc2ccccc21 [Example 2, Benzo[1,3]dioxol-5-yl-(5H-10,11-dihydro-pyrrolo [2,1-c][1,4]benzodiazepin-10-yl)-methanone] | 41% of control | 23 |
| Cn1ccc2cc(C(=O)N3Cc4cccn4Cc4ccccc43)ccc21 [Example 1, (5H-10,11-Dihydro-pyrrolo [2,1-c][1,4]benzodiazepin-10-yl)-(1-methyl-1H-indol-5-yl)-methanone] | 174% of control | 66 |

Source: patent publication US6344451B1, “Pyrrolobenzodiazepine carboxyamide vasopressin agonists” (American Home Products, priority 1999, dated 2002)
